Reference: patent publication US20050027103A1, “Structural and cytoskeleton-associated protein” (priority 2001, published 2005)

Tested on: expression of SEQ ID NO:33 in early confluent human C3C cells
Assay: Microarray analysis of SEQ ID NO:33 expression in response to a steroid
Assay type: cell-based
Details: 1, 10, and 100 μM beclomethasone for 1, 3, and 6 h
Protocol: Total RNA is isolated from tissue samples using the guanidinium thiocyanate method and poly(A)^+ RNA is purified using the oligo-(dT) cellulose method. Each poly(A)^+ RNA sample is reverse transcribed using MMLV reverse-transcriptase, 0.05 pg/μl oligo-(dT) primer (21mer), 1×first strand buffer, 0.03 units/μl RNase inhibitor, 500 μM DATP, 500 μM dGTP, 500 μM dTTP, 40 μM dCTP, 40 μM dCTP-Cy3 (BDS) or dCTP-Cy5 (Amersham Biosciences). The reverse transcription reaction is performed in a […] containing 200 ng poly(A)^+ RNA with GENBRIGHT kits (Incyte). Specific control poly(A)^+ RNAs are synthesized by int vitro transcription from non-coding yeast genomic DNA. After incubation at 37° C. for 2 hr, each reaction sample (one with Cy3 and another with Cy5 labeling) is treated with […] of 0.5M sodiumhydroxide and incubated for 20 minutes at 85° C. to the stop the reaction and degrade the RNA. […]
Sequences of the present invention are used to generate array elements. […] PCR amplification uses primers complementary to the vector sequences flanking the cDNA inset Array elements are amplified in thity cycles of PCR from an initial quantity of 1-2 ng to a final quantity greater than 5 μg. […]

C[C@H]1C[C@H]2[C@@H]3CCC4=CC(=O)C=C[C@]4(C)[C@@]3(Cl)[C@@H](O)C[C@]2(C)[C@@]1(O)C(=O)CO [beclomethasone]
expression of SEQ ID NO:33 decreased (microarray analysis): at least 2 fold
